Literature values, collected in patent US6720472B2, “HMGI proteins in cancer and obesity” (University of Medicine and Dentistry of New Jersey, priority 1996, dated 2004).
“Also recorded” adds a separate entry of the source. Where two headings read alike, the source gives them in different places.

What was measured:
HMG-I proteins = details: in vitro, A T-rich DNA
[1] = system: B-DNA dodecamer of sequence C-G-C-G-A-A-T-T-BrC-G-C-G; details: X-ray analysis of the complex
[2] = system: ascites tumors [Ehrlich and sarcoma 180 (S180)]
[3] = system: solid tumors (Ehrlich carcinoma, S180, Walker carcinoma, and Oberling-Guerin-Guerin myeloma)

Cn1cc(NC(=O)c2cc(NC(=O)CN=C(N)N)cn2C)cc1C(=O)NCCC(=N)N [netropsin]
competition with the BD peptide and the HMG-I proteins for DNA binding (HMG-I proteins): compete with the HMGI proteins for binding to AT-rich DNA; also recorded: effectively compete
binding site on DNA [1]: binds within the minor groove

Cn1cc(NC(=O)c2cc(NC(=O)c3cc(NC=O)cn3C)cn2C)cc1C(=O)NCCC(=N)N [distamycin A]
inhibition on ascites tumors ([2]; Ehrlich and sarcoma 180 (S180) ascites tumors): strong inhibition
mitotic damages of tumor cells ([2]; Ehrlich ascites tumor): induces mitotic damages
mitotic index of the Ehrlich ascites tumor ([2]; Ehrlich ascites tumor): decrease the mitotic index
growth of solid tumors [3]: delays the growth
competition with the BD peptide and the HMG-I proteins for DNA binding (HMG-I proteins): compete with the HMGI proteins for binding to AT-rich DNA
competition with the BD peptide and the HMG-I proteins for DNA binding (HMG-I proteins; listed as distamycin): effectively compete

CN1CCN(c2ccc3[nH]c(-c4ccc5[nH]c(-c6ccc(O)cc6)nc5c4)nc3c2)CC1 [Hoechst 33258, Hoechst 33258 (bisbenzimide)]
competition with the BD peptide and the HMG-I proteins for DNA binding (HMG-I proteins): compete with the HMGI proteins for binding to AT-rich DNA; also recorded: effectively compete
